Patent US20080009470A1, “Acremonic Acid Derivatives” (priority 2003, published 2008)
Values joined by “and” are separate entries in the source; they are usually repeats but may differ in a detail not shown here. Equal values may be shown once.

Legend:
Enterococcus faecium = assay: MIC, Agar Dilution / Micro Dilution Test (NCCLS); format: cell-based; details: n=1
Source text: (§1) E.g., the compounds of the present invention show antimicrobial, e.g. antibacterial activity against gram positive bacteria and gram negative, such as Staphylococcus, e.g. S. aureus, MRSA (Methicillin Resistant S. aureus), MSSA (Methicillin Sensitive S. aureus), Enterococcus, e.g. E. faecalis, E. faecium, Moraxella, e.g. M. catarrhalis, in vitro in the Agar Dilution Test and/or Micro Dilution Test for bacteria according to National Committee for Clinical Laboratory Standards (NCCLS) 1993, • Document M7-A4, Vol. 20, No. 2, 2000: “Methods for dilution Antimicrobial Susceptibility Tests for Bacteria that Grow Aerobically”—Third Edition, Approved Standard”; and • Document M26-A, Vo. 19, No. 18, 1999: Methods for determining antibactericidal activity of antimicrobial agents, • Document M11-A3 for anaerobic bacteria, • in a concentration from about 0.1 to ca. 25.6 μg/ml, e.g. using strains including Staphylococcus aureus (ATCC 29213 and ATCC 29506); Enterococcus faecalis ATCC 29212; • and in vivo in the septicaemia mouse model, in accordance to the method description Nr. 159 A-5, approved by Austrian Health Authorities (MA 58, no. 2968/95 of Oct. 12, 1995), e.g. when administered at dosages from 0.05 to 50 mg/kg body weight.
(§2) Furthermore, the compound of example 1 is active against mupirocin-resistant staphylococci (n=26) with MICs below 0.5 μg/ml (range ≦0.125-0.5 μg/ml). Moraxella catarrhalis isolates (n=2) are inhibited at MICs of 0.2 and 0.4 μg/ml. The MICs for Enterococcus faecalis isolates (n=2) are 6.4 μg/ml and 12.8 μg/ml.

[1] = test system: mupirocin-resistant staphylococci; assay: MIC, Agar Dilution / Micro Dilution Test (NCCLS); format: cell-based; details: n=26
Source text: as §1, §2

[2] = test system: Enterococcus faecalis isolates; assay: MIC, Agar Dilution / Micro Dilution Test (NCCLS); format: cell-based; details: n=2
Source text: as §1, §2

[3] = test system: methicillin-sensitive Staphylococcus aureus (MSSA) strains; assay: MIC, Agar Dilution / Micro Dilution Test (NCCLS); format: cell-based; details: n=26, e.g. in the form of its sodium salt
Source text: as §1, §2

[4] = test system: Moraxella catarrhalis isolates; assay: MIC, Agar Dilution / Micro Dilution Test (NCCLS); format: cell-based; details: n=2
Source text: as §1, §2

[5] = test system: methicillin-resistant S. aureus (MRSA) strains; assay: MIC, Agar Dilution / Micro Dilution Test (NCCLS); format: cell-based, Staphylococcus aureus; details: e.g. in the form of its sodium salt
Source text: E.g., the compounds of the present invention show antimicrobial, e.g. antibacterial activity against gram positive bacteria and gram negative, such as Staphylococcus, e.g. S. aureus, MRSA (Methicillin Resistant S. aureus), MSSA (Methicillin Sensitive S. aureus), Enterococcus, e.g. E. faecalis, E. faecium, Moraxella, e.g. M. catarrhalis, in vitro in the Agar Dilution Test and/or Micro Dilution Test for bacteria according to National Committee for Clinical Laboratory Standards (NCCLS) 1993, • Document M7-A4, Vol. 20, No. 2, 2000: “Methods for dilution Antimicrobial Susceptibility Tests for Bacteria that Grow Aerobically”—Third Edition, Approved Standard”; and • Document M26-A, Vo. 19, No. 18, 1999: Methods for determining antibactericidal activity of antimicrobial agents, • Document M11-A3 for anaerobic bacteria, • in a concentration from about 0.1 to ca. 25.6 μg/ml, e.g. using strains including Staphylococcus aureus (ATCC 29213 and ATCC 29506); Enterococcus faecalis ATCC 29212; • and in vivo in the septicaemia mouse model, in accordance to the method description Nr. […]
The compound of example 1 is a preferred compound of the present invention. It has, for example been determined that the minimum inhibitory concentration, e.g. MIC90 (μg/ml), of the compound of Example 1, e.g. in the form of its sodium salt, against, for example S. aureus (MRSA) is of about 0.2.

[6] = test system: S. aureus B29 (clinical isolate, MRSA); assay: septicaemia mouse model; format: in vivo; details: mice, survival on day 5, Probit analysis, e.g. sodium salt
Source text: as §1
(§3) The ED50 values are calculated by Probit analysis of the administered dosages of compounds. Activity is determined by numbers of surviving animals per group of 8 or 6 mice, respectively, per dosage unit on day 5 after infection.

[7] = test system: Staphylococcus aureus (ATCC 49951, MSSA); assay: septicaemia mouse model; format: in vivo; details: mice, treated orally 1 and 4 hours after infection; survival on day 5; Probit analysis; e.g. sodium salt; ranging from 5.54 to 13.34
Source text: as §1, §3

## 6-O-(2′-fluoroisobutyryl)-24, 25-dihydro-acremonic acid [Example 1]
Enterococcus faecium
  MIC: 6.4 µg/mL
[1]
  MIC range: 0.125 to 0.5 µg/mL
  MICs: below 0.5 μg/ml
[2]
  MICs: 6.4 µg/mL and 12.8 µg/mL
[3]
  MIC90: 0.25 µg/mL
[4]
  MICs: 0.2 µg/mL and 0.4 µg/mL
[5]; MRSA strains, n=26
  MIC50: 0.2 µg/mL
[5]; S. aureus (MRSA)
  MIC90: about 0.2 μg/ml
[6]; treated orally 1 and 4 hours after infection, ranging from 4.25 to 11.98
  ED50: ca. 6.65 mg/kg body weight
[6]; treated subcutaneously 1 and 4 hours after infection, ranging from 1.93 to 5.85
  ED50: ca. 3.20 mg/kg body weight
[7]
  ED50: ca. 8.55 mg/kg body weight
